The test system of this assay is SH-SY5Y cells. Nature of the assay: Mitochondrial membrane potential by flow cytometry (JC-1) in SH-SY5Y cells under H2O2. In kind it is cell-based, human. To be noted: 7b for 24 h, then 400 µM H2O2 for 4 h, JC-1 flow cytometry. The procedure:
To confirm this MMP recovery results, flow cytometry experiments were carried out with compound 7b and SH-SY5Y cells. Cells were treated with 7b for 24 h and then were exposed to 400 µM H2O2 for 4 h. JC-1 was used as fluorescence indicator of MMP state. In flow cytometry studies of MMP, JC-1 is excited at 488 nm wavelength. Both JC-1 aggregates and monomers show green fluorescence (peak emission at 527 nm) measured in the FL1 channel. […] Thus, healthy non-apoptotic cells are detected in both FL1 and FL2 channels, while cells with disrupted mitochondrial function show fluorescence in FL1 channel but reduced FL2 intensity. […] From these flow cytometry experiments, we can confirm that after compound 7b treatment there is a significant MMP recovery in SH-SY5Y cells under oxidative stress pressure.
For MMP flow cytometry studies, 10^5 SH-SY5Y cells were seeded in 6 well plates. After 24 h, cells were treated with test compound and incubated for other 24 h. After the treatment period, cells were exposed to H2O2 for 4 h. Then, cells were washed twice with Hanks buffer and stained with 5 µM JC-1 in culture media in dark, in a CO2 incubator at 37 °C for 20 min. After the staining period, cells were washed three times with Hanks buffer, collected and resuspended in 500 µL culture media. Data were obtained and analyzed using an Accuri C6 flow cytometer (BD Biosciences, Ann Arbour, MI, USA). […]
(In general: A flow cytometer gives signals particle by particle.)

Consider `O=C(/C=C(O)/C=C/c1ccc(O)c(F)c1F)C(F)(F)F` [Compound 7b, (3Z,5E)-6-(2,3-Difluoro-4-hydroxyphenyl)-1,1,1-trifluoro-4-hydroxyhexa-3,5-dien-2-one], for which the FLA-1/FLA-2 ratio result was “significant reduction of that ratio”.

The values are drawn from PMC6222706, “Evaluation of the Antioxidant and Neuroprotectant Activities of New Asymmetrical 1,3-Diketones” (Molecules : A Journal of Synthetic Chemistry and Natural …, 2018).
